According to ChEMBL document CHEMBL1130927, “Novel imidazole derivatives with subtype-selective antimuscarinic activity (2)” (Bioorg Med Chem Lett, 1998):

Key:
[1] = target: Muscarinic acetylcholine receptor M3 (Cavia porcellus) (UniProt Q8VH26); assay: Antimuscarinic activity against M3 receptor of guinea pig ileum; format: tissue-based
[2] = target: Muscarinic acetylcholine receptor M2 (Cavia porcellus); assay: Antimuscarinic activity against M2 receptor of guinea pig atrium; details: Cardiac atrium
[3] = tested on: Muscarinic acetylcholine receptors; M2 & M3; assay: Selectivity ratio was calculated between Kb values at M2 and M3 muscarinic receptors; format: protein assay; details: Cavia porcellus

Muscarinic acetylcholine receptor M3 (Cavia porcellus), sequence (Q8VH26 1-587): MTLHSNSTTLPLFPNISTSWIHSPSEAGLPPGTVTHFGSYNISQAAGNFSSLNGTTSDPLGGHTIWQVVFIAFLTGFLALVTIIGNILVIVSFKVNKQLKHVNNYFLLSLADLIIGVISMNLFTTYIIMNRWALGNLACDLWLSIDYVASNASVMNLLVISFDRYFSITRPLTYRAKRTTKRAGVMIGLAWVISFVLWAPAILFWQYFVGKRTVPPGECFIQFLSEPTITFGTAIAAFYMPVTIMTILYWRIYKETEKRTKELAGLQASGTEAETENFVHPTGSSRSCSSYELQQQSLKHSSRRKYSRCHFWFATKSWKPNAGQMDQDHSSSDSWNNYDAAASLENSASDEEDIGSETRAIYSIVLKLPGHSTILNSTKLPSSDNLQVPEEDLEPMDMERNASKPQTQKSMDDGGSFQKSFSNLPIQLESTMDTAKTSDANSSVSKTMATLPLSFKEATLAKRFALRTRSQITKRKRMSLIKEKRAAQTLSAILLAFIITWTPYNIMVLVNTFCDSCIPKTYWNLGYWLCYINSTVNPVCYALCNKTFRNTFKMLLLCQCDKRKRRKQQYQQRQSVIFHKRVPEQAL

Row | Structure (SMILES) | Kb [1] | Kb [2] | Ratio [3]
1 | Cc1nccn1CCC(C(N)=O)(c1ccccc1)C(C)C (stereo unspecified) | 394 nM | – | –
2 | Cc1nccn1CCC(C)(C(N)=O)c1ccccc1 (stereo unspecified) | 1830 nM | – | –
3 | CNC(=O)C(CCn1ccnc1C)(c1ccccc1)c1ccccc1 | 5150 nM | 5870 nM | 1.14
4 | Cc1nccn1CCC(C(N)=O)(c1ccccc1)C1CCCCC1 (stereo unspecified) | 19 nM | 603 nM | 31.7
5 | COC(=O)C(CCn1ccnc1C)(c1ccccc1)c1ccccc1 | > 1000 nM | – | –
6 | Cc1nccn1CCC(O)(c1ccccc1)c1ccccc1 | 16.7 nM | 50.1 nM | 3
7 | Cc1nccn1CCC(C(=O)O)(c1ccccc1)c1ccccc1 | 6.95 nM | 82.7 nM | 11.9
8 | Cc1nccn1CCCCC(C(N)=O)(c1ccccc1)c1ccccc1 | 43.7 nM | 148 nM | 3.39
9 | Cc1nccn1C(C)CC(C(N)=O)(c1ccccc1)c1ccccc1 (stereo unspecified) | 16.9 nM | 174 nM | 10.3
10 | Cc1nccn1CCCCCC(C(N)=O)(c1ccccc1)c1ccccc1 | 71.3 nM | 710 nM | 9.96
11 | Cc1nccn1CCC(C(N)=O)C1c2ccccc2CCc2ccccc21 (stereo unspecified) | 2140 nM | – | –
12 | Cc1nccn1CC(C)C(C(N)=O)(c1ccccc1)c1ccccc1 (stereo unspecified) | 2.89 nM | 45.1 nM | 15.6
13 | Cc1nccn1CCC(C(=O)N(C)C)(c1ccccc1)c1ccccc1 | 258 nM | 478 nM | 1.85
14 | Cc1ccc(C(CCn2ccnc2C)(C(N)=O)c2ccccc2)cc1 (stereo unspecified) | 24.6 nM | 743 nM | 30.3
15 | Cc1nccn1CCCC(C(N)=O)(c1ccccc1)c1ccccc1 | 1.14 nM | 20.1 nM | 17.6
16 | Cc1nccn1CCC(C(N)=O)C1c2ccccc2Oc2ccccc21 (stereo unspecified) | > 300 nM | – | –
17 | Cc1nccn1CCC(C(N)=O)(c1ccccc1)c1ccccc1 | – | – | 13
18 | Cc1nccn1CCC(CO)(c1ccccc1)c1ccccc1 | 25.4 nM | 83.8 nM | 3.3
19 | Cc1nccn1CCC(C(N)=O)(c1ccc(F)cc1)c1ccc(F)cc1 | 9.85 nM | 161 nM | 16.3
20 | Cc1nccn1CCC(C(N)=O)(c1ccccc1)c1ccccn1 (stereo unspecified) | 2.86 nM | 50.1 nM | 17.5
21 | Cc1nccn1CCC(C#N)(c1ccccc1)c1ccccc1 | 10.4 nM | 15.5 nM | 1.49
